Source: ChEMBL document CHEMBL2390867, “Design, synthesis and evaluation of novel tacrine-coumarin hybrids as multifunctional cholinesterase inhibitors against Alzheimer's disease” (Eur J Med Chem, 2013)
pIC50, pKi: −log10 of the molar value. Calls of active or inactive are those of the source. No cut-off for these calls is given here.

What was measured:
[1] = biological target: Amyloid-beta precursor protein (Homo sapiens) (UniProt P05067); details: at 20 µM
Cholinesterase = Cholinesterase (Equus caballus, UniProt P81908)
Description: Inhibition of equine serum BChE using S-butyrylthiocholine iodide as substrate preincubated for 6 mins prior to substrate addition measured at 60 to 180 seconds by Ellman's method

Acetylcholinesterase [2] = biological target: T1, Acetylcholinesterase (Electrophorus electricus, UniProt O42275)
Description: Inhibition of electric eel AChE using acetylthiocholine iodide as substrate preincubated for 6 mins prior to substrate addition measured at 60 to 180 seconds by Ellman's method

[3] = Neurotoxicity in human SH-SY5Y cells at 50 uM after 24 hrs by MTT assay relative to control; format: toxicity, cell-based
[4] = Neurotoxicity in human SH-SY5Y cells at 25 uM after 24 hrs by MTT assay relative to control; format: toxicity, cell-based
[5] = Neurotoxicity in human SH-SY5Y cells at 10 uM after 24 hrs by MTT assay relative to control; format: toxicity, cell-based
[6] = Neurotoxicity in human SH-SY5Y cells at 5 uM after 24 hrs by MTT assay relative to control; format: toxicity, cell-based; details: read-out: Activity
[7] = Neurotoxicity in human SH-SY5Y cells at 1 uM after 24 hrs by MTT assay relative to control; format: toxicity, cell-based
[8] = Metal chelating activity assessed as compound-Cu2+ complex formation at 25 uM by UV-vis spectrophotometric analysis; format: functional
Acetylcholinesterase [9] = biological target: T1, Acetylcholinesterase; assay: Competitive inhibition of electric eel AChE using acetylthiocholine as substrate by Lineweaver-Burk plot analysis
[10] = Metal chelating activity assessed as compound-Fe2+ complex formation at 25 uM by UV-vis spectrophotometric analysis; format: functional

Chain of Amyloid-beta precursor protein (Homo sapiens) (P05067 whole entry): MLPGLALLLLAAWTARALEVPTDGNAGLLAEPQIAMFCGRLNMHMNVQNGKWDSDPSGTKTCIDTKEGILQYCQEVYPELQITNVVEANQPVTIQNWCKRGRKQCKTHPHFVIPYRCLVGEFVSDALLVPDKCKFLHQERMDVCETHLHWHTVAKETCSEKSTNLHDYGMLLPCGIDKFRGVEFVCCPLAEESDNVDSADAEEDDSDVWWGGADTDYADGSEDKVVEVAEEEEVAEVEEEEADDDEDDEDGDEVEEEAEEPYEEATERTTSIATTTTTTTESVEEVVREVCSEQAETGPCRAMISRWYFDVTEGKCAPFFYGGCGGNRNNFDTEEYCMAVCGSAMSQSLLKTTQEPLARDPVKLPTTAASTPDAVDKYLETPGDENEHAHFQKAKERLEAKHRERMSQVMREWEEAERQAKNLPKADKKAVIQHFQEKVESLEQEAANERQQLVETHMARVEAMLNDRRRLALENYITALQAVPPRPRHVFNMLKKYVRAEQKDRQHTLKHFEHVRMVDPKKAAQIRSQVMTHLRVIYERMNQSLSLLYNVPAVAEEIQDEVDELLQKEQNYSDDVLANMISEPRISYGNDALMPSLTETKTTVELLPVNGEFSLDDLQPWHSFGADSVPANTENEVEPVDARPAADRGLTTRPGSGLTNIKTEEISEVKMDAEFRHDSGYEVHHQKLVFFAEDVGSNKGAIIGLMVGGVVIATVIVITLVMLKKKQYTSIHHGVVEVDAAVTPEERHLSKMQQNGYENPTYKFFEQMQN
Chain of Cholinesterase (P81908 whole entry): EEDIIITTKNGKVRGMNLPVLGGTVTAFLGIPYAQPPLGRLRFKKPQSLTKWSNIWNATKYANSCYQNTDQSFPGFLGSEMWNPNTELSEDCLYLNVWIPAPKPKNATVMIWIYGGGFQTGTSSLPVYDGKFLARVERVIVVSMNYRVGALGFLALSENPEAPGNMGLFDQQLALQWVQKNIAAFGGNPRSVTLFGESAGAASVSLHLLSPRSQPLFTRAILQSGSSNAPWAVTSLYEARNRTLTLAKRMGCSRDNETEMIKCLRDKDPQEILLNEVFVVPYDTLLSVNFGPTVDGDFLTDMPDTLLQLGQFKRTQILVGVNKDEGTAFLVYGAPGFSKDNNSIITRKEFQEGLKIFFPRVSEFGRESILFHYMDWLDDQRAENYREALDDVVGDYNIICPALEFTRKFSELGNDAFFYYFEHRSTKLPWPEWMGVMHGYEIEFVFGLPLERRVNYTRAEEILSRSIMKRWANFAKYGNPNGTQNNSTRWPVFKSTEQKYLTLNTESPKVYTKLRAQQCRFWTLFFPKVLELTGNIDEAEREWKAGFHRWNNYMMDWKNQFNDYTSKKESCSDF
T1 sequence (O42275 whole entry): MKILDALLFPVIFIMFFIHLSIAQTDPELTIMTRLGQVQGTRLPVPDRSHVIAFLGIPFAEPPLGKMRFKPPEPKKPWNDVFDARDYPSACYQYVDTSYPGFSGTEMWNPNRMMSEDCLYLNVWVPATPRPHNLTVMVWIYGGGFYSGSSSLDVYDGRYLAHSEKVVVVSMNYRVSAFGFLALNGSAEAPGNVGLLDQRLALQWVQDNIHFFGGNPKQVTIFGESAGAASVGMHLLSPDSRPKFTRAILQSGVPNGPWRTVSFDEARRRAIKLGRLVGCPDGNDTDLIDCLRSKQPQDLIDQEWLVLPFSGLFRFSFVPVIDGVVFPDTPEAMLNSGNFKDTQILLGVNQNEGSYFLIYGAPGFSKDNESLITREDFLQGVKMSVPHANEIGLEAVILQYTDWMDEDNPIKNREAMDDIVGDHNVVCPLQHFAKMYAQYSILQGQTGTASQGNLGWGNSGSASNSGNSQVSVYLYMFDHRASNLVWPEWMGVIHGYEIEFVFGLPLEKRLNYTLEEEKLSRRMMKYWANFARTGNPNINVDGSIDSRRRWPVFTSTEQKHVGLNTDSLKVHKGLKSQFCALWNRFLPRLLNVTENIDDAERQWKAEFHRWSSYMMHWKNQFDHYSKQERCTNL

Q: With `O=c1ccc2ccc(O)cc2o1` as the compound, how does the inhibition [1] read?
A: 30.5%

Q: For `COc1cc(/C=C/C(=O)CC(=O)/C=C/c2ccc(O)c(OC)c2)ccc1O`, which inhibition [1] is on record?
A: 42.4%

Q: With `O=c1cc(-c2ccccc2)c2ccc(O)cc2o1` as the compound, how does the pIC50 (Cholinesterase) read?
A: < 3.30

Q: What about the pIC50 (Acetylcholinesterase [2]) of the same compound?
A: 3.59

Q: And the inhibition [1]?
A: 27.1%

Q: What does the source list for `COc1cc(=O)oc2cc(OCCN3CCN(CC(=O)Nc4c5c(nc6ccccc46)CCCC5)CC3)ccc12`?
A: pIC50 (Cholinesterase): 5.29; pIC50 (Acetylcholinesterase [2]): 6.82; inhibition [1]: 21.6%

Q: With `Cc1cc(=O)oc2cc(OCCCCCN3CCN(CC(=O)Nc4c5c(nc6ccccc46)CCCC5)CC3)ccc12` as the compound, how does the pIC50 (Cholinesterase) read?
A: 6.79

Q: What about the pIC50 (Acetylcholinesterase [2]) of the same compound?
A: 6.48

Q: What about the inhibition [1] of the same compound?
A: 59.8%

Q: With `COc1cc(=O)oc2cc(OCCCCCCN3CCN(CC(=O)Nc4c5c(nc6ccccc46)CCCC5)CC3)ccc12` as the compound, how does the pIC50 (Cholinesterase) read?
A: 5.75

Q: What about the pIC50 (Acetylcholinesterase [2]) of the same compound?
A: 6.00

Q: And the inhibition [1]?
A: 31.9%

Q: What does the source list for `Cc1cc(=O)oc2cc(OCCCCN3CCN(CC(=O)Nc4c5c(nc6ccccc46)CCCC5)CC3)ccc12`?
A: pIC50 (Cholinesterase): 6.83; pIC50 (Acetylcholinesterase [2]): 6.73; inhibition [1]: 52.7%

Q: With `Cc1cc(=O)oc2cc(OCCCCCCN3CCN(CC(=O)Nc4c5c(nc6ccccc46)CCCC5)CC3)ccc12` as the compound, how does the pIC50 (Cholinesterase) read?
A: 7.00

Q: And the pIC50 (Acetylcholinesterase [2])?
A: 6.40

Q: And the inhibition [1]?
A: 57.6%

Q: Which results are given for `COc1cc(=O)oc2cc(O)ccc12`?
A: pIC50 (Cholinesterase): < 3.30; pIC50 (Acetylcholinesterase [2]): 3.68; inhibition [1]: 22.4%

Q: Which results are given for `COc1cc(=O)oc2cc(OCCCCCN3CCN(CC(=O)Nc4c5c(nc6ccccc46)CCCC5)CC3)ccc12`?
A: pIC50 (Cholinesterase): 6.14; pIC50 (Acetylcholinesterase [2]): 6.45; inhibition [1]: 30%

Q: What does the source list for `O=C(CN1CCN(CCCCCOc2ccc3c(-c4ccccc4)cc(=O)oc3c2)CC1)Nc1c2c(nc3ccccc13)CCCC2`?
A: pIC50 (Cholinesterase): 5.90; pIC50 (Acetylcholinesterase [2]): 5.80; inhibition [1]: 29.5%

Q: With `O=C(CN1CCN(CCCCCOc2ccc3ccc(=O)oc3c2)CC1)Nc1c2c(nc3ccccc13)CCCC2` as the compound, how does the pIC50 (Cholinesterase) read?
A: 6.67

Q: What about the pIC50 (Acetylcholinesterase [2]) of the same compound?
A: 6.51

Q: What about the inhibition [1] of the same compound?
A: 52.7%

Q: With `O=C(CN1CCN(CCCOc2ccc3c(-c4ccccc4)cc(=O)oc3c2)CC1)Nc1c2c(nc3ccccc13)CCCC2` as the compound, how does the pIC50 (Cholinesterase) read?
A: 5.50

Q: What about the pIC50 (Acetylcholinesterase [2]) of the same compound?
A: 6.05

Q: And the inhibition [1]?
A: 28.2%

Q: Which results are given for `O=C(CN1CCN(CCOc2ccc3ccc(=O)oc3c2)CC1)Nc1c2c(nc3ccccc13)CCCC2`?
A: pIC50 (Cholinesterase): 6.31; pIC50 (Acetylcholinesterase [2]): 6.82; inhibition [1]: 59%

Q: With `O=C(CN1CCN(CCCOc2ccc3ccc(=O)oc3c2)CC1)Nc1c2c(nc3ccccc13)CCCC2` as the compound, how does the pIC50 (Cholinesterase) read?
A: 6.36

Q: And the pIC50 (Acetylcholinesterase [2])?
A: 6.88

Q: And the inhibition [1]?
A: 55.1%

Q: Which results are given for `O=C(CN1CCNCC1)Nc1c2c(nc3ccccc13)CCCC2`?
A: pIC50 (Cholinesterase): 4.66; pIC50 (Acetylcholinesterase [2]): 3.84; inhibition [1]: 30.3%

Q: With `O=C(CN1CCN(CCOc2ccc3c(-c4ccccc4)cc(=O)oc3c2)CC1)Nc1c2c(nc3ccccc13)CCCC2` as the compound, how does the pIC50 (Cholinesterase) read?
A: 5.82

Q: And the pIC50 (Acetylcholinesterase [2])?
A: 6.43

Q: What about the inhibition [1] of the same compound?
A: 27.2%

Q: With `O=C(CN1CCN(CCCCCCOc2ccc3c(-c4ccccc4)cc(=O)oc3c2)CC1)Nc1c2c(nc3ccccc13)CCCC2` as the compound, how does the pIC50 (Cholinesterase) read?
A: 5.35

Q: And the pIC50 (Acetylcholinesterase [2])?
A: 5.63

Q: And the inhibition [1]?
A: 27.5%

Q: With `Cc1cc(=O)oc2cc(O)ccc12` [HYMECROMONE] as the compound, how does the pIC50 (Cholinesterase) read?
A: < 3.30

Q: And the pIC50 (Acetylcholinesterase [2])?
A: 3.78

Q: And the inhibition [1]?
A: 21.5%

Q: What does the source list for `COc1cc(=O)oc2cc(OCCCN3CCN(CC(=O)Nc4c5c(nc6ccccc46)CCCC5)CC3)ccc12`?
A: pIC50 (Cholinesterase): 5.74; pIC50 (Acetylcholinesterase [2]): 6.78; inhibition [1]: 34.9%

Q: With `O=C(CN1CCN(CCCCCCOc2ccc3ccc(=O)oc3c2)CC1)Nc1c2c(nc3ccccc13)CCCC2` as the compound, how does the pIC50 (Cholinesterase) read?
A: 6.68

Q: And the pIC50 (Acetylcholinesterase [2])?
A: 6.19

Q: And the inhibition [1]?
A: 57.1%

Q: With `COc1cc(=O)oc2cc(OCCCCN3CCN(CC(=O)Nc4c5c(nc6ccccc46)CCCC5)CC3)ccc12` as the compound, how does the pIC50 (Cholinesterase) read?
A: 5.44

Q: What about the pIC50 (Acetylcholinesterase [2]) of the same compound?
A: 6.63

Q: What about the inhibition [1] of the same compound?
A: 22.1%

Q: What does the source list for `Cc1cc(=O)oc2cc(OCCCN3CCN(CC(=O)Nc4c5c(nc6ccccc46)CCCC5)CC3)ccc12`?
A: pIC50 (Cholinesterase): 6.20; pIC50 (Acetylcholinesterase [2]): 6.89; inhibition [1]: 67.5%

Q: Which results are given for `Cc1cc(=O)oc2cc(OCCN3CCN(CC(=O)Nc4c5c(nc6ccccc46)CCCC5)CC3)ccc12`?
A: Activity [3]: 91.5%; Activity [4]: 93.6%; Activity [5]: 104.3%; viability at 24 h, 5 µM [6]: 94.7%; Activity [7]: 96.6%; Activity [8]: Active; pKi (Acetylcholinesterase [9]): 7.09; Activity [10]: Active; pIC50 (Cholinesterase): 6.63; pIC50 (Acetylcholinesterase [2]): 7.04

Q: What does the source list for `O=C(CN1CCN(CCCCOc2ccc3ccc(=O)oc3c2)CC1)Nc1c2c(nc3ccccc13)CCCC2`?
A: pIC50 (Cholinesterase): 6.51; pIC50 (Acetylcholinesterase [2]): 6.77; inhibition [1]: 57%

Q: With `O=C(CN1CCN(CCCCOc2ccc3c(-c4ccccc4)cc(=O)oc3c2)CC1)Nc1c2c(nc3ccccc13)CCCC2` as the compound, how does the pIC50 (Cholinesterase) read?
A: 5.74

Q: And the pIC50 (Acetylcholinesterase [2])?
A: 5.95

Q: And the inhibition [1]?
A: 28.6%
